Test results from patent US12583820B2, “Broad spectrum antivirals against coronavirus” (priority 2020, dated 2026).
Like-named read-outs stand apart in the source and are kept apart here.

Experiments:
NV 3CLpro = NV 3CLpro (Norovirus, UniProt Q83883); test: biochemical; format: biochemical; conditions: read-out: IC50 (μM) ± SD
[1] = test system: NV in the replicon harboring cells (HG23 cells); test: microbe, parasite or virus in culture; format: cell-based, norovirus (NV); conditions: read-out: EC50 (μM) ± SD
3CLpro of MERS-CoV = 3CLpro of MERS-CoV (Middle East respiratory syndrome-related coronavirus, UniProt K9N7C7); test: biochemical; format: biochemical
[2] = test system: Huh-7, CRFK or CCL1 cells; test: Nonspecific cytotoxic effects (CC50), CytoTox 96 kit; conditions: Huh-7, CRFK, or CCL1 cells, Table 7
[3] = read-out: MERS-CoV IC50 (uM) enzyme
[4] = read-out: MERS-CoV IC50(μM) Enzyme

Chain of NV 3CLpro (Q83883 1101-1281): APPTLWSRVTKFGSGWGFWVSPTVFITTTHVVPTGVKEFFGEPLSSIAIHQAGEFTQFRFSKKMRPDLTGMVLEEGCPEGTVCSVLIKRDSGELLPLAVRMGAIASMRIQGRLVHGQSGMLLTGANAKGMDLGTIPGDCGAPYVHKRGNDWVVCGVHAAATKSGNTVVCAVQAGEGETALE
Chain of 3CLpro of MERS-CoV (K9N7C7 3248-3553 limits assumed): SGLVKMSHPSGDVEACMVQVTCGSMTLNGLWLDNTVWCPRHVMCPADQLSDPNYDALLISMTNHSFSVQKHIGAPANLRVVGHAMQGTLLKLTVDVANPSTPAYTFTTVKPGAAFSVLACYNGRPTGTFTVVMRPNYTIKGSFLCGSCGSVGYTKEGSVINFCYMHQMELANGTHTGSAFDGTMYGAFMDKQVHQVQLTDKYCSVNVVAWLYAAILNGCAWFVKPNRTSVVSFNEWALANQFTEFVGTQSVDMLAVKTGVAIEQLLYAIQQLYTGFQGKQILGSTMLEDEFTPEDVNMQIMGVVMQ

Compound | IC50 (NV 3CLpro) | EC50 [1] | IC50 (3CLpro of MERS-CoV; [3]) | CC50 (HG23 cells) | IC50 (3CLpro of MERS-CoV; [4]) | CC50 [2]
CC(C)(OC(=O)N[C@@H](CC1CCCCC1)C(=O)N[C@H](C=O)C[C@@H]1CCNC1=O)c1cccc(Cl)c1 [Compound 5a (Scheme 2)] | 2.9 ± 0.9 µM | 3.7 ± 2.3 µM | 11.5 µM | > 100 µM | – | –
CC(C)(Cc1cccc(Cl)c1)OC(=O)N[C@@H](CC1CCCCC1)C(=O)N[C@H](C=O)C[C@@H]1CCNC1=O [Compound 5h (Scheme 2)] | 7.7 ± 1.7 µM | 5.4 ± 1.1 µM | > 10 µM | 15.6 ± 1.8 µM | – | –
CC(C)(COC(=O)N[C@@H](CC1CCCCC1)C(=O)N[C@H](C=O)C[C@@H]1CCNC1=O)c1cccc(Cl)c1 [Compound 5d (Scheme 2)] | 0.23 ± 0.04 µM | 0.07 ± 0.01 µM | – | 13.3 ± 1.27 µM | 1.9 µM | –
CC(C)C[C@H](NC(=O)OCC(C)(C)c1ccccc1)C(=O)N[C@H](C=O)C[C@@H]1CCNC1=O [Compound 5f (Scheme 2)] | 0.45 ± 0.07 µM | 0.65 ± 0.07 µM | – | > 100 µM | 0.8 µM | –
CC(C)C[C@H](NC(=O)OCC(C)(C)Cc1cccc(Cl)c1)C(=O)N[C@@H](C[C@@H]1CCNC1=O)C(O)S(=O)(=O)O (some centres unmarked) [Compound 6o] | 0.16 ± 0.03 µM | 0.15 ± 0.08 µM | – | > 100 µM | – | –
CC(C)C[C@H](NC(=O)OCCCc1cccc(Cl)c1)C(=O)N[C@H](C=O)C[C@@H]1CCNC1=O [Compound 5n] | 0.26 ± 0.08 µM | 0.16 ± 0.06 µM | – | > 100 µM | – | –
CC(C)C[C@H](NC(=O)OCCCc1cccc(Cl)c1)C(=O)N[C@@H](C[C@@H]1CCNC1=O)C(O)S(=O)(=O)O (some centres unmarked) [Compound 6n] | 0.19 ± 0.06 µM | 0.09 ± 0.01 µM | – | > 100 µM | – | –
Sodium (2S)-2-((S)-2-((((4,4-difluorocyclohexyl) methoxy-d2) carbonyl) amino)-4-methylpentanamido)-1-hydroxy-3-(2-oxopyrrolidin-3-yl) propane-1-sulfonate [Compound 11c] | – | – | – | – | – | > 100 µM
CC(C)C[C@H](NC(=O)OCCCc1ccccc1)C(=O)N[C@H](C=O)C[C@@H]1CCNC1=O [Compound 5m] | 0.75 ± 0.07 µM | 0.77 ± 0.06 µM | – | > 100 µM | – | –
CC(C)C[C@H](NC(=O)OC(C)(C)Cc1cccc(Cl)c1)C(=O)N[C@H](C=O)C[C@@H]1CCNC1=O [Compound 5i (Scheme 2)] | 1.2 ± 0.5 µM | 0.9 ± 0.21 µM | 1.1 µM | > 100 µM | – | –
O=C(N[C@@H](CC1CCCCC1)C(=O)N[C@@H](C[C@@H]1CCNC1=O)C(O)S(=O)(=O)O)OC/C=C/c1cccc(Cl)c1 (some centres unmarked) [Compound 6s] | 0.16 ± 0.01 µM | 0.07 ± 0.02 µM | – | 28.3 ± 2.8 µM | – | –
CC(C)C[C@H](NC(=O)OCCCc1ccccc1)C(=O)N[C@@H](C[C@@H]1CCNC1=O)C(O)S(=O)(=O)O (some centres unmarked) [Compound 6m] | 0.6 ± 0.14 µM | 0.85 ± 0.07 µM | – | > 100 µM | – | –
CC(C)C[C@H](NC(=O)OC/C=C/c1cccc(Cl)c1)C(=O)N[C@@H](C[C@@H]1CCNC1=O)C(O)S(=O)(=O)O (some centres unmarked) [Compound 6t] | 0.11 ± 0.02 µM | 0.08 ± 0.02 µM | – | > 100 µM | – | –
((1s,4S)-4-Propylcyclohexyl) methyl-d2 ((2S)-4-methyl-1-oxo-1-(((2S)-1-oxo-3-(2-oxopyrrolidin-3-yl) propan-2-yl) amino) pentan-2-yl) carbamate [Compound 9b] | – | – | – | – | – | > 100 µM
CC(C)C[C@H](NC(=O)OC1(c2cccc(Cl)c2)CC1)C(=O)N[C@@H](C[C@@H]1CCNC1=O)C(O)S(=O)(=O)O (some centres unmarked) [Compound 6r] | 0.25 ± 0.08 µM | 0.55 ± 0.08 µM | – | > 100 µM | – | –
Sodium (2S)-1-hydroxy-2-((S)-4-methyl-2-(((((1s,4S)-4-propylcyclohexyl)oxy)carbonyl) amino)pentanamido)-3-((S)-2-oxopyrrolidin-3-yl)propane-1-sulfonate [Compound 3c] | – | – | – | – | – | > 100 µM
O=C(N[C@@H](CC1CCCCC1)C(=O)N[C@@H](C[C@@H]1CCNC1=O)C(O)S(=O)(=O)O)OC1(c2cccc(Cl)c2)CC1 (some centres unmarked) [Compound 6q] | 0.27 ± 0.04 µM | 0.18 ± 0.04 µM | – | 42.3 ± 15.6 µM | – | –
